Source: PMC4872164, “Therapeutic Blockade of Immune Complex-Mediated Glomerulonephritis by Highly Selective Inhibition of Bruton’s Tyrosine Kinase” (Scientific Reports, 2016)

Target: Bruton's tyrosine kinase (BTK) (Homo sapiens, UniProt Q06187)
Assay: TR-FRET LanthaScreen binding assay (affinity, kinact/Ki […] ^-1 s^-1); BTK enzyme IC50; co-crystallization and mass spectrometry (not shown)
Type: biochemical

Bruton's tyrosine kinase (BTK), sequence (Q06187 2-659): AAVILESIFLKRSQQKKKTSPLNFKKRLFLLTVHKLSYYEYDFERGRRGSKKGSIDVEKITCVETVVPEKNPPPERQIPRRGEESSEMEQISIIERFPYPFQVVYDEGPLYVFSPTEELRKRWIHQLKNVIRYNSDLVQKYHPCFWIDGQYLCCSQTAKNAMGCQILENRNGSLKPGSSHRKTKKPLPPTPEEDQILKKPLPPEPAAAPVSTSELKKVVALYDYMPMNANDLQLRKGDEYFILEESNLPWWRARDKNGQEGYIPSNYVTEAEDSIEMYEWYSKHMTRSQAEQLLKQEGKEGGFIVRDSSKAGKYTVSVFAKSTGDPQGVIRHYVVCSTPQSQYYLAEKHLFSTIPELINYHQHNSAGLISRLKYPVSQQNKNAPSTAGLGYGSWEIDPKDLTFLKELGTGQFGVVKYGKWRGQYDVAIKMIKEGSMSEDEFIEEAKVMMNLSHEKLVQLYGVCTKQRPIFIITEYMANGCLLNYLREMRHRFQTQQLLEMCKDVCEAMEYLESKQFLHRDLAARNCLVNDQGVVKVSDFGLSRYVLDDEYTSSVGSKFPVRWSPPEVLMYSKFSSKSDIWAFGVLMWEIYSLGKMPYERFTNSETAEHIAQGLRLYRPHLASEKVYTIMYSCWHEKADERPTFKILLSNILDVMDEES

IC50: 0.9 nM
Substance: BI-BTK-1
